ChEMBL document CHEMBL1150293, “The pyridoxamine action on Amadori compounds: A reexamination of its scavenging capacity and chelating effect” (Bioorg Med Chem, 2008)

Experiment: Aqueous stability assessed as half life at pH 7.4 by HPLC
Type: physicochemical
Conditions: aqueous solution

Compound	half-life [h]
O=C(CN1CCOCC1)[C@@H](O)[C@H](O)[C@H](O)CO	92
O=C(CN[C@H](Cc1c[nH]c2ccccc12)C(=O)O)[C@@H](O)[C@H](O)[C@H](O)CO	25
